What was measured:
Assay type in all cases: in vivo
[1] = tested on: Echinochloa crus-galli (ECHCG); experiment: Example A post-emergence herbicidal activity, glasshouse pot test; settings: 360 h, rate 125 g/ha, evaluated 15 days after spraying, read-out: Post-emergence activity ECHCG (100=total damage to plant; 0=no damage to plant)
Protocol: (§1) Seeds of a variety of test species were sown in standard soil in pots. After cultivation for one day (pre-emergence) or after 10 days cultivation (post-emergence) under controlled conditions in a glasshouse, the plants were sprayed with an aqueous spray solution derived from the formulation of the technical active ingredient in 0.6 ml acetone and 45 ml formulation solution containing 10.6% Emulsogen EL (Registry number 61791-12-6), 42.2% N-methylpyrrolidone, 42.2% dipropylene glycol monomethyl ether (Registry number 34590-94-8) and 0.2% X-77 (Registry number 11097-66-8). The test plants were then grown in a greenhouse under optimum conditions until, 15 days later for post-emergence and 20 days for pre-emergence, the test was evaluated (100=total damage to plant; 0=no damage to plant).
(§2) Alopecurus myosuroides (ALOMY), Avena fatua (AVEFA), Lolium perenne (LOLPE), Setaria faberi (SETFA), Digitaria sanguinalis (DIGSA), Echinochloa crus-galli (ECHCG)

[2] = tested on: Lolium perenne (LOLPE); experiment: as above; settings: 360 h, rate 125 g/ha, evaluated 15 days after spraying, read-out: Post-emergence activity LOLPE (100=total damage to plant; 0=no damage to plant)
Protocol: as §1, §2

[3] = tested on: Digitaria sanguinalis (DIGSA); experiment: as above; settings: 360 h, rate 125 g/ha, evaluated 15 days after spraying, read-out: Post-emergence activity DIGSA (100=total damage to plant; 0=no damage to plant)
Protocol: as §1, §2

[4] = tested on: Alopecurus myosuroides (ALOMY); experiment: as above; settings: 360 h, rate 125 g/ha, evaluated 15 days after spraying, read-out: Post-emergence activity ALOMY (100=total damage to plant; 0=no damage to plant)
Protocol: as §1, §2

[5] = tested on: Setaria faberi (SETFA); experiment: as above; settings: 360 h, rate 125 g/ha, evaluated 15 days after spraying, read-out: Post-emergence activity SETFA (100=total damage to plant; 0=no damage to plant)
Protocol: as §1, §2

[6] = tested on: Avena fatua (AVEFA); experiment: as above; settings: 360 h, rate 125 g/ha, evaluated 15 days after spraying, read-out: Post-emergence activity AVEFA (100=total damage to plant; 0=no damage to plant)
Protocol: as §1, §2

[7] = tested on: Echinochloa crus-galli (ECHCG); experiment: Example A pre-emergence herbicidal activity, glasshouse pot test; settings: 480 h, evaluated 20 days after spraying, read-out: Pre-emergence activity ECHCG (100=total damage to plant; 0=no damage to plant); for pest or weed control at 250 g/ha: rate 250 g/ha; for pest or weed control at 500 g/ha: rate 500 g/ha
Protocol: as §1, §2

[8] = tested on: Lolium perenne (LOLPE); experiment: as above; settings: 480 h, evaluated 20 days after spraying, read-out: Pre-emergence activity LOLPE (100=total damage to plant; 0=no damage to plant); for pest or weed control at 250 g/ha: rate 250 g/ha; for pest or weed control at 500 g/ha: rate 500 g/ha
Protocol: as §1, §2

[9] = tested on: Digitaria sanguinalis (DIGSA); experiment: as above; settings: 480 h, evaluated 20 days after spraying, read-out: Pre-emergence activity DIGSA (100=total damage to plant; 0=no damage to plant); for pest or weed control at 250 g/ha: rate 250 g/ha; for pest or weed control at 500 g/ha: rate 500 g/ha
Protocol: as §1, §2

[10] = tested on: Alopecurus myosuroides (ALOMY); experiment: as above; settings: 480 h, evaluated 20 days after spraying, read-out: Pre-emergence activity ALOMY (100=total damage to plant; 0=no damage to plant); for pest or weed control at 250 g/ha: rate 250 g/ha; for pest or weed control at 500 g/ha: rate 500 g/ha
Protocol: as §1, §2

[11] = tested on: Setaria faberi (SETFA); experiment: as above; settings: 480 h, evaluated 20 days after spraying, read-out: Pre-emergence activity SETFA (100=total damage to plant; 0=no damage to plant); for pest or weed control at 250 g/ha: rate 250 g/ha; for pest or weed control at 500 g/ha: rate 500 g/ha
Protocol: as §1, §2

[12] = tested on: Avena fatua (AVEFA); experiment: as above; settings: 480 h, evaluated 20 days after spraying, read-out: Pre-emergence activity AVEFA (100=total damage to plant; 0=no damage to plant); for pest or weed control at 250 g/ha: rate 250 g/ha; for pest or weed control at 500 g/ha: rate 500 g/ha
Protocol: as §1, §2

Structure (SMILES)	pest or weed control at 125 g/ha [1]	pest or weed control at 125 g/ha [2]	pest or weed control at 125 g/ha [3]	pest or weed control at 125 g/ha [4]	pest or weed control at 125 g/ha [5]	pest or weed control at 125 g/ha [6]	pest or weed control at 250 g/ha [7]	pest or weed control at 250 g/ha [8]	pest or weed control at 250 g/ha [9]	pest or weed control at 250 g/ha [10]	pest or weed control at 250 g/ha [11]	pest or weed control at 250 g/ha [12]	pest or weed control at 500 g/ha [7]	pest or weed control at 500 g/ha [8]	pest or weed control at 500 g/ha [9]	pest or weed control at 500 g/ha [10]	pest or weed control at 500 g/ha [11]	pest or weed control at 500 g/ha [12]
CCc1ccc(-c2ccc(Cl)c(Cl)c2)cc1C1=C(O)C(C)(C)OC(C)(C)C1=O [Compound A-42]	100%	70%	100%	80%	100%	90%	80%	50%	100%	100%	100%	30%						
Cc1ccc(-c2ccc(Cl)cc2C)cc1C1=C(O)C(C)(C)OC(C)(C)C1=O [Compound A-51]	80%	0%	60%	10%	40%	20%	50%	40%	50%	0%	10%	0%						
COC(=O)OC1=C(c2cc(-c3ccc(Cl)cc3)ccc2C)C(=O)C(C)(C)OC1 [Compound D-5]	60%	40%	20%	10%	70%	40%							50%	0%	60%	0%	20%	20%
Cc1ccc(-c2ccc(F)cc2)cc1C1=C(O)C(C)(C)OC(C)(C)C1=O [Compound A-9]	80%	30%	80%	50%	80%	0%							50%	20%	50%	20%	60%	30%
CCc1ccc(-c2ccc(Cl)cc2)cc1C1=C(O)C2(CCCC2)OCC1=O [Compound A-36]	70%	70%	70%	40%	60%	0%	100%	80%	100%	60%	90%	60%						
Cc1ccc(-c2ccc(Cl)cc2)cc1C1=C(O)COC(C)(C)C1=O (single isomer, unassigned) [Compound A-1]	70%	80%	0%	10%	50%	0%							50%	10%	70%	40%	70%	10%
